Drawing on patent US8420670B2 (Abbott Laboratories, priority 2007, dated 2013), this text covers IC50 and Ki for 24 molecules.

Molecules are shown by their SMILES. Structures can show the parent of a compound that is named as a salt.

For one experiment, the target named is T1, Human GlyT1c (Homo sapiens, UniProt P48067).
T1 construct: expressed in transfected cells; host or cells: CHO (hGlyT1c_5_CHO clone)
T1 sequence (P48067 1-706): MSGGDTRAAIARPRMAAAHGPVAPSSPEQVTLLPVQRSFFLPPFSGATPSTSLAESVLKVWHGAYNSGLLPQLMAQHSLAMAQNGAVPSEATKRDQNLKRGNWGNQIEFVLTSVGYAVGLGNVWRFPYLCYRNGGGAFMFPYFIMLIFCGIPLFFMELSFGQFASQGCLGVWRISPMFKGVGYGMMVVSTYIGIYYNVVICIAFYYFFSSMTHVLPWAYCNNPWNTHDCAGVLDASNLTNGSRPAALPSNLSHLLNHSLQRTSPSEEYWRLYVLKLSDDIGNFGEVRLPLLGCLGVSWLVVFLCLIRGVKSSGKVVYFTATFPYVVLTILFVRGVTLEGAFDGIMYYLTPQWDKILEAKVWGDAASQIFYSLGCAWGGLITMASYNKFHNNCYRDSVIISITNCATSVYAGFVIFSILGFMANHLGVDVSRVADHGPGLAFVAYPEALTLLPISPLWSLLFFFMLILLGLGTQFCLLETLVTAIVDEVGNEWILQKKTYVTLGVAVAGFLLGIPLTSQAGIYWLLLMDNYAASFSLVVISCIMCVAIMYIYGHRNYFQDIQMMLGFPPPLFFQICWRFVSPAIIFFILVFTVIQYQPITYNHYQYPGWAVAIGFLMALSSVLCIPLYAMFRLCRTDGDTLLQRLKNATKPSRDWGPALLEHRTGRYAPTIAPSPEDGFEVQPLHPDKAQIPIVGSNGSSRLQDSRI
In words: Glycine uptake in recombinant hGlyT1 expressing cells. The experiment is classed as cell-based. The following applies: hGlyT1c_5_CHO cells; [3H]-glycine uptake, 60-120 min. As for the experimental part:
1. Glycine Uptake in Recombinant hGlyT1 Expressing Cells:
Human GlyT1c expressing recombinant hGlyT1c—5_CHO cells were plated at 20,000 cells per well in 96 well Cytostar-T scintillation microplates (Amersham Biosciences) and cultured to sub-confluency for 24 h. For glycine uptake assays the culture medium was aspirated and the cells were washed once with 100 μl HBSS (Gibco BRL, #14025-050) with 5 mM L-Alanine (Merck #1007). 80 μl HBSS buffer were added, followed by 10 μl inhibitor or vehicle (10% DMSO) and 10 μl [^3H]-glycine (TRK71, Amersham Biosciences) to a final concentration of […] for initiation of glycine uptake. The plates were placed in a Wallac Microbeta (PerkinElmer) and continuously counted by solid phase scintillation spectrometry during up to 3 hours. Nonspecific uptake was determined in the presence of 10 μM Org24598. IC50 calculations were made by four-parametric logistic nonlinear regression analysis (GraphPad Prism) using determinations within the range of linear increase of [^3H]-glycine incorporation between 60 and 120 min.

The target in another experiment is T2, human GlyT1c transporter (Homo sapiens, UniProt P48067).
T2 construct: expressed in transfected cells; host or cells: recombinant hGlyT1-expressing cells
T2 sequence (P48067 1-706): T1 sequence (P48067 1-706)
Kind of experiment: [3H]-(R)-NPTS radioligand binding assay using recombinant hGlyT1 expressing cell membranes. The following applies: 0.5 nM [3H]-(R)-NPTS, apparent Ki via Cheng-Prusoff, read-out: [3H]-(R)-NPTS bindung Ki. As for the experimental part: 2. [^3H]-(R)-NPTS Radioligand Binding Assays using Recombinant hGlyT1 Expressing Cell Membranes:
Radioligand binding to human GlyT1c transporter-expressing membranes was measured in duplicate in a total volume of 200 μl in 96-well plates. To 100 μl of membrane suspension (yielding a final membrane protein concentration of 50 μg/ml) in assay buffer (120 mM NaCl, 2 mM KCl, 10 mM Hepes, 1 mM MgCl2, 1 mM CaCl2, pH 7.5) […] of [^3H]-(R)NPTS (0.5 nM final) were added in assay buffer. For competition experiments 10 μl of buffer or unlabeled compound solution obtained from dilution series of test compounds in DMSO followed. An intermediate 1:10 dilution in assay buffer yielded a final DMSO concentration of 1%. Non-specific binding was determined in the presence of 10 μM Org24598 (or its racemate Org24461) for [^3H]-(R)-NPTS. After incubation at room temperature for 1 h, the incubation mixture was harvested (Tomtec Mach III U Harvester) through 96-well GF/B filter plates (PerkinElmer), presoaked for 1 h with 40 μl per well of 0.1% polyethylene-imine (PEI). After washing twice with ice-cold 50 mM Tris-HCl pH 7.4 buffer, drying and addition of 35 μl scintillator (BetaplateScint, PerkinElmer) per well followed. The radioactivity was determined by liquid scintillation spectrometry in a MicroBeta (PerkinElmer) plate counter.
Data analysis: For binding of [^3H]-(R)-NPTS to cell membranes, the calculation of Kd and Bmax values from the saturation binding assays and the IC50 values from the displacement binding was performed by iterative non-linear regression analysis adapted from the ‘Ligand’ program (Munson and Rodbard, 1980). Radioligand displacement curves in absence or in presence of increasing concentrations of tested compounds were fitted using a one-site fit and the apparent Ki values were calculated from the IC50 values using the Cheng-Prusoff equation (Cheng and Prusoff 1973).

As to `Cc1cc(NCc2ccc(Cl)c(Cl)c2)c2cccc(OCCN3CCOCC3)c2n1` [Example 48, (3,4-Dichlorobenzyl)-[2-methyl-8-(2-morpholin-4-yl-ethoxy)-quinolin-4-yl]-amine dihydrochloride], the half-inhibitory concentration (IC50) (in general, the concentration that gives 50% inhibition) at Human GlyT1c was not above 0.1 µM. In addition, the Ki at human GlyT1c transporter was not above 0.1 µM.

In the case of `COCCOc1cccc2c(NCc3ccc(Cl)c(Cl)c3)cc(C)nc12` [Example 49, (3,4-Dichlorobenzyl)-[8-(2-methoxyethoxy)-2-methylquinolin-4-yl]-amine], the concentration for half-maximal inhibition (IC50) on Human GlyT1c is not above 0.1 µM. Also, the Ki at human GlyT1c transporter was not above 0.1 µM.

In the case of `Cc1cc(NCc2ccc(Cl)c(Cl)c2)c2cccc(OCCN(C)C)c2n1` [Example 50, (3,4-Dichlorobenzyl)-[8-(2-dimethylamino-ethoxy)-2-methylquinolin-4-yl]-amine dihydrochloride], the IC50 on Human GlyT1c is not above 1 µM. For the same molecule, at human GlyT1c transporter, the Ki is not above 0.1 µM.

As for `Cc1cc(NCc2ccc(Cl)c(Cl)c2)c2cccc(OCC(C)C)c2n1` [Example 51, (3,4-Dichlorobenzyl)-(8-isobutoxy-2-methylquinolin-4-yl)-amine], at Human GlyT1c, the IC50 is not above 1 µM. Besides, on human GlyT1c transporter, the Ki is not above 1 µM.

Consider `Cc1cc(NCc2ccc(Cl)c(Cl)c2)c2cccc(OCCN3CCCC3)c2n1` [Example 52, (3,4-Dichlorobenzyl)-[2-methyl-8-(2-pyrrolidin-1-yl-ethoxy)-quinolin-4-yl]-amine], for which the half-inhibitory concentration (IC50) at Human GlyT1c was not above 1 µM. The Ki at human GlyT1c transporter was not above 0.1 µM.

`C=CCN1CCCC[C@H]1[C@@H](Nc1cc(C)nc2c(OC)cccc12)c1ccccc1` [Example 53, [(S)—((S)-1-Allylpiperidin-2-yl)-phenylmethyl]-(8-methoxy-2-methylquinolin-4-yl)-amine]: the IC50 at Human GlyT1c was not above 100 µM. Also, the Ki at human GlyT1c transporter was not above 10 µM.

Regarding `COc1cccc2c(N[C@@H](c3ccccc3)[C@@H]3CCCCN3)cc(C)nc12` [Example 54, (8-Methoxy-2-methylquinolin-4-yl)-((S)-phenyl-(S)-piperidin-2-yl-methyl)-amine], the IC50 at Human GlyT1c is not above 1 µM. The Ki at human GlyT1c transporter was not above 1 µM.

For the molecule `Cc1cc(NCc2ccc(Cl)c(Cl)c2)c2cccc(Oc3ccccn3)c2n1` [Example 55, (3,4-Dichlorobenzyl)-[2-methyl-8-(pyridin-2-yloxy)-quinolin-4-yl]-amine], on Human GlyT1c, the half-maximal inhibitory concentration (IC50) is not above 10 µM. Besides, the Ki at human GlyT1c transporter was not above 1 µM.

Turning to `Cc1cc(NCc2ccc(Cl)c(Cl)c2)c2cccc(OC(F)(F)F)c2n1` [Example 56, (3,4-Dichloro-benzyl)-(2-methyl-8-trifluoromethoxyquinolin-4-yl)-amine], at Human GlyT1c, the IC50 is not above 0.1 µM. In addition, at human GlyT1c transporter, the Ki is not above 1 µM.

In the case of `COc1cccc2c(N[C@@H](C)c3ccc(Cl)cc3)cc(C)nc12` [Example 57, [(S)-1-(4-Chlorophenyl)-ethyl]-(8-methoxy-2-methylquinolin-4-yl)-amine], the IC50 on Human GlyT1c is not above 100 µM. Further, on human GlyT1c transporter, the Ki is not above 10 µM.

Turning to `COc1cccc2c(N[C@H](C)c3ccc(Cl)cc3)cc(C)nc12` [Example 58, [(R)-1-(4-Chlorophenyl)-ethyl]-(8-methoxy-2-methylquinolin-4-yl)-amine], the half-inhibitory concentration (IC50) at Human GlyT1c is not above 1 µM. Moreover, the Ki on human GlyT1c transporter is not above 0.1 µM.

For `C=CCN1CCCC[C@H]1[C@@H](Nc1cc(C)nc2ccccc12)c1ccccc1` [Example 59, [(S)—((S)-1-Allylpiperidin-2-yl)-phenylmethyl]-(2-methylquinolin-4-yl)-amine], the IC50 on Human GlyT1c was not above 100 µM. In addition, on human GlyT1c transporter, the Ki was not above 10 µM.

In the case of `Cc1cc(N[C@@H](c2ccccc2)[C@@H]2CCCCN2)c2ccccc2n1` [Example 60, (2-Methylquinolin-4-yl)-((S)-phenyl-(S)-piperidin-2-yl-methyl)-amine], the half-maximal inhibitory concentration (IC50) at Human GlyT1c was not above 1 µM. Also, the Ki at human GlyT1c transporter is not above 1 µM.

On to `Cc1cc(N[C@@H](c2ccccc2)[C@@H]2CCCCN2C)c2ccccc2n1` [Example 61, (S)—((S)-1-Methylpiperidin-2-yl)-phenylmethyl]-(2-methylquinolin-4-yl)-amine dihydrochloride], for which the half-maximal inhibitory concentration (IC50) at Human GlyT1c is not above 10 µM. Moreover, the Ki at human GlyT1c transporter is not above 10 µM.

As to `COc1cccc2c(NC(CN3CCOCC3)c3ccccc3)cc(C)nc12` (stereo not drawn) [Example 62, (8-Methoxy-2-methylquinolin-4-yl)-(2-morpholin-4-yl-1-phenyl)-ethylamine], the half-inhibitory concentration (IC50) at Human GlyT1c is not above 10 µM. For the same molecule, the Ki at human GlyT1c transporter is not above 10 µM.

As to `COc1cccc2c(NC(CN3CCCCC3)c3ccccc3)cc(C)nc12` (stereo not drawn) [Example 63, (8-Methoxy-2-methyl-quinolin-4-yl)-(1-phenyl-2-piperidin-1-yl)-ethylamine], the IC50 on Human GlyT1c was not above 100 µM. Moreover, the Ki at human GlyT1c transporter was not above 10 µM.

Consider `COc1cccc2c(NC(c3ccccc3)c3ccc(Cl)cc3)cc(C)nc12` (stereo not drawn) [Example 64, [(4-Chlorophenyl)-phenylmethyl]-(8-methoxy-2-methylquinolin-4-yl)-amine], for which the half-maximal inhibitory concentration (IC50) at Human GlyT1c is not above 10 µM. The Ki at human GlyT1c transporter is not above 10 µM.

With `COc1cccc2c(NC(CN3CCOCC3)c3ccc(Cl)cc3)cc(C)nc12` (stereo not drawn) [Example 65, [1-(4-Chlorophenyl)-2-morpholin-4-yl-ethyl]-(8-methoxy-2-methylquinolin-4-yl)-amine], the IC50 at Human GlyT1c was not above 10 µM. Further, the Ki at human GlyT1c transporter was not above 10 µM.

As for `COc1cccc2c(NC(CN3CCCCC3)c3ccc(Cl)cc3)cc(C)nc12` (stereo not drawn) [Example 66, [1-(4-Chlorophenyl)-2-piperidin-1-yl-ethyl]-(8-methoxy-2-methylquinolin-4-yl)-amine], the half-maximal inhibitory concentration (IC50) at Human GlyT1c is not above 10 µM. Besides, at human GlyT1c transporter, the Ki is not above 10 µM.

Consider `COc1cccc2c(NC(CN3CCCC3)c3ccc(Cl)cc3)cc(C)nc12` (stereo not drawn) [Example 67, [1-(4-Chloro-phenyl)-2-pyrrolidin-1-yl-ethyl]-(8-methoxy-2-methyl-quinolin-4-yl)-amine], for which the concentration for half-maximal inhibition (IC50) at Human GlyT1c was not above 10 µM. The Ki at human GlyT1c transporter is not above 1 µM.

Regarding `COc1cccc2c(NC(CN3CCCC3)c3ccccc3)cc(C)nc12` (stereo not drawn) [Example 69, (8-Methoxy-2-methylquinolin-4-yl)-(1-phenyl-2-pyrrolidin-1-ylethyl)-amine], the IC50 on Human GlyT1c was not above 10 µM. For the same molecule, the Ki on human GlyT1c transporter is not above 10 µM.

Consider `COc1cccc2c(NC(c3ccc(Cl)cc3)c3nccn3C)cc(C)nc12` (stereo not drawn) [Example 70, [(4-Chlorophenyl)-(1-methyl-1H-imidazol-2-yl)-methyl]-(8-methoxy-2-methylquinoline-4-yl)amine], for which, on Human GlyT1c, the IC50 was not above 100 µM. At human GlyT1c transporter, the Ki was not above 10 µM.

For the molecule `COc1cccc2c(NC(CN(C)C)c3ccccc3)cc(C)nc12` (stereo not drawn) [Example 71, N*1*-(8-Methoxy-2-methylquinolin-4-yl)-N*2*,N*2*-dimethyl-1-phenylethane-1,2-diamine], the 50% inhibitory concentration (IC50) at Human GlyT1c was not above 1 µM. Further, the Ki on human GlyT1c transporter is not above 0.1 µM.

Regarding `COc1cccc2c(NC(c3ccc(Cl)cc3)C3CC3)cc(C)nc12` (stereo not drawn) [Example 72, [(4-Chlorophenyl)-cyclopropylmethyl]-(8-methoxy-2-methylquinolin-4-yl)-amine], the 50% inhibitory concentration (IC50) on Human GlyT1c was not above 10 µM. Also, the Ki at human GlyT1c transporter was not above 1 µM.
